Source: patent publication US10308659B2, “Pyridine derivatives” (Hoffmann-La Roche Inc., priority 2013, dated 2019)

Key:
human CB2 receptors = human CB2 receptors (Homo sapiens (Human), UniProt P34972); assay: cAMP assay, CHO cells expressing human CB2 receptors; type: cell-based; conditions: functional cAMP assay, CHO cells expressing human CB2; read-out: EC50 CB2 human
Procedure: (§1) CHO cells expressing human CB1 or CB2 receptors are seeded 17-24 hours prior to the experiment 50.000 cells per well in a black 96 well plate with flat clear bottom (Corning Costar #3904) in DMEM (Invitrogen No. 31331), 1×HT supplement, with 10% fetal calf serum and incubated at 5% CO2 and 37° C. in a humidified incubator. The growth medium was exchanged with Krebs Ringer Bicarbonate buffer with 1 mM IBMX and incubated at 30° C. for 30 min. Compounds were added to a final assay volume of 100 μl and incubated for 30 min at 30° C. […] The time-resolved energy transfer is measured by a TRF reader (Evotec Technologies GmbH), equipped with a ND:YAG laser as excitation source. The plate is measured twice with the excitation at 355 nm and at the emission with a delay of 100 ns and a gate of 100 ns, total exposure time 10 s at 730 (bandwidth30 nm) or 645 nm (bandwidth 75 nm), respectively. The FRET signal is calculated as follows: FRET=T730-Alexa730-P(T645-B645) with P=Ru730-B730/Ru645-B645, where T730 is the test well measured at 730 nM, T645 is the test well measured at 645 nm, B730 and B645 are the buffer controls at 730 nm and 645 nm, respectively. cAMP content is determined from the function of a standard curve spanning from 10 μM to 0.13 nM cAMP.
(§2) EC50 values were determined using Activity Base analysis (ID Business Solution, Limited).

human CB1 receptors = human CB1 receptors (Homo sapiens (Human), UniProt P21554); assay: cAMP assay, CHO cells expressing human CB1 receptors; type: cell-based; conditions: functional cAMP assay, CHO cells expressing human CB1; read-out: EC50 CB1 human
Procedure: as §1, §2

human CB1 receptors, sequence (P21554 whole entry): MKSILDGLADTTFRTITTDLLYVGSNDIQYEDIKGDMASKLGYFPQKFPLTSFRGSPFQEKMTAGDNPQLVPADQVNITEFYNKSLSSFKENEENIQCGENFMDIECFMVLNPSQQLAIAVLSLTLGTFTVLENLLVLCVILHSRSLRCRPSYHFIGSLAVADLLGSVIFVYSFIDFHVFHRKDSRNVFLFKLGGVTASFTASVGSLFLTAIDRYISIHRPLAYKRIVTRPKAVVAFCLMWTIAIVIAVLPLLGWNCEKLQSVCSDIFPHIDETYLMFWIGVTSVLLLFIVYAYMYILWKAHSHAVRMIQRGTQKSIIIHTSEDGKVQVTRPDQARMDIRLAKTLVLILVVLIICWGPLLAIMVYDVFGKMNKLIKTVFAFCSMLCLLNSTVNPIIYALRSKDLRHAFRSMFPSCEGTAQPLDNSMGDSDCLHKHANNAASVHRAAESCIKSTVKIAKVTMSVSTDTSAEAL
human CB2 receptors, sequence (P34972 whole entry): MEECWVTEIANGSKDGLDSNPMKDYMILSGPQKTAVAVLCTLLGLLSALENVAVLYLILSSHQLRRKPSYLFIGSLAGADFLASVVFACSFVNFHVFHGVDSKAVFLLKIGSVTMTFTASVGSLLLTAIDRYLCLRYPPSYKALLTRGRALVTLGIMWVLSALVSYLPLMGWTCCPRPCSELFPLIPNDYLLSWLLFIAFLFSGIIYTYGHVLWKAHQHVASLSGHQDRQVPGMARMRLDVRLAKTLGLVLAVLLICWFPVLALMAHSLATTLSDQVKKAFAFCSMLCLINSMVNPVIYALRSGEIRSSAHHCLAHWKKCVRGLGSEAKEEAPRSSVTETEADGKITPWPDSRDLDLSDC

Row | Structure (SMILES) | EC50 (human CB2 receptors) | EC50 (human CB1 receptors)
1 | c1c(-c2nc(C3CC3)no2)ncc(C2CC2)c1OCC1CC1 [Example 3, 3-cyclopropyl-5-[5-cyclopropyl-4-(cyclopropylmethoxy)pyridin-2-yl]-1,2,4-oxadiazole] | 1.2 nM | > 10000 nM
2 | CN1CCCC(Oc2cc(-c3noc(C(C)(C)C)n3)ncc2C2CC2)C1 (stereo not drawn) [Example 99, 5-tert-butyl-3-[5-cyclopropyl-4-(1-methylpiperidin-3-yl)oxypyridin-2-yl]-1,2,4-oxadiazole] | 317 nM | > 10000 nM
3 | CC1(COc2cc(-c3noc(C(C)(C)C)n3)ncc2C2CC2)COC1 [Example 55, 5-tert-butyl-3-[5-cyclopropyl-4-[(3-methyloxetan-3-yl)methoxy]pyridin-2-yl]-1,2,4-oxadiazole] | 7.7 nM | > 10000 nM
4 | CC(C)(C)c1nc(-c2cc(OCCN3CCCC3)c(C3CC3)cn2)no1 [Example 94, 5-tert-butyl-3-[5-cyclopropyl-4-(2-pyrrolidin-1-ylethoxy)pyridin-2-yl]-1,2,4-oxadiazole] | 60.2 nM | > 10000 nM
5 | CC(C)(C)c1nc(-c2cc(OC3COC3)c(C3CC3)cn2)no1 [Example 54, 5-tert-butyl-3-[5-cyclopropyl-4-(oxetan-3-yloxy)pyridin-2-yl]-1,2,4-oxadiazole] | 33.1 nM | > 10000 nM
6 | CC(C)(C)c1nc(-c2cc(OCC(F)(F)F)c(Cl)cn2)no1 [Example 70, 5-tert-butyl-3-[5-chloro-4-(2,2,2-trifluoroethoxy)pyridin-2-yl]-1,2,4-oxadiazole] | 5.7 nM | > 10000 nM
7 | OC1(c2nc(-c3cc(OCC4CC4)c(C4CC4)cn3)no2)CC1 [Example 23, 1-[3-[5-cyclopropyl-4-(cyclopropylmethoxy)pyridin-2-yl]-1,2,4-oxadiazol-5-yl]cyclopropan-1-ol] | 35.2 nM | > 10000 nM
8 | COCC(C)Oc1cc(-c2noc(C(C)(C)C)n2)ncc1C1CC1 (stereo not drawn) [Example 87, 5-tert-butyl-3-[5-cyclopropyl-4-(1-methoxypropan-2-yloxy)pyridin-2-yl]-1,2,4-oxadiazole] | 113 nM | > 10000 nM
9 | CC(C)(C)c1nc(-c2cc(OCC(F)F)c(C3CC3)cn2)no1 [Example 115, 5-tert-butyl-3-[5-cyclopropyl-4-(2,2-difluoroethoxy)pyridin-2-yl]-1,2,4-oxadiazole] | 2 nM | > 10000 nM
10 | OC1(c2nc(-c3cc(OCC(F)(F)F)c(C4CC4)cn3)no2)CC1 [Example 37, 1-[3-[5-cyclopropyl-4-(2,2,2-trifluoroethoxy)pyridin-2-yl]-1,2,4-oxadiazol-5-yl]cyclopropan-1-ol] | 236 nM | > 10000 nM
11 | Cc1noc(-c2cc(OCC(F)(F)F)c(N3CC(F)(F)C3)cn2)n1 [Example 16, 5-[5-(3,3-difluoroazetidin-1-yl)-4-(2,2,2-trifluoroethoxy)pyridin-2-yl]-3-methyl-1,2,4-oxadiazole] | 343 nM | > 10000 nM
12 | FC(F)(F)COc1cc(C2=NC3(CCCCC3)CO2)ncc1C1CC1 [Example 31, 2-[5-cyclopropyl-4-(2,2,2-trifluoroethoxy)pyridin-2-yl]-3-oxa-1-azaspiro[4.5]dec-1-ene] | 19.4 nM | > 10000 nM
13 | FC(F)(F)c1nc(-c2cc(OCC3CC3)c(C3CC3)cn2)no1 [Example 19, 3-[5-cyclopropyl-4-(cyclopropylmethoxy)pyridin-2-yl]-5-(trifluoromethyl)-1,2,4-oxadiazole] | 13.7 nM | > 10000 nM
14 | CCN(CC)CC(C)Oc1cc(-c2noc(C(C)(C)C)n2)ncc1C1CC1 (stereo not drawn) [Example 101, 2-[2-(5-tert-butyl-1,2,4-oxadiazol-3-yl)-5-cyclopropylpyridin-4-yl]oxy-N,N-diethylpropan-1-amine] | 142 nM | > 10000 nM
15 | CC(C)c1nc(-c2cc(OCC(F)(F)F)c(N3CC(F)(F)C3)cn2)no1 [Example 45, 3-[5-(3,3-difluoroazetidin-1-yl)-4-(2,2,2-trifluoroethoxy)pyridin-2-yl]-5-propan-2-yl-1,2,4-oxadiazole] | 77.8 nM | > 10000 nM
16 | CC(C)c1nc(-c2cc(OCC(F)(F)F)c(C3CC3)cn2)no1 [Example 36, 3-[5-cyclopropyl-4-(2,2,2-trifluoroethoxy)pyridin-2-yl]-5-propan-2-yl-1,2,4-oxadiazole] | 20.9 nM | > 10000 nM
17 | C[C@@H](Oc1cc(-c2noc(C(C)(C)C)n2)ncc1C1CC1)C(F)(F)F [Example 49, 5-tert-butyl-3-[5-cyclopropyl-4-[(2R)-1,1,1-trifluoropropan-2-yl]oxypyridin-2-yl]-1,2,4-oxadiazole] | 51.5 nM | > 10000 nM
18 | CC(C)(C)c1nc(-c2cc(OCC3COC3)c(C3CC3)cn2)no1 [Example 90, 5-tert-butyl-3-[5-cyclopropyl-4-(oxetan-3-ylmethoxy)pyridin-2-yl]-1,2,4-oxadiazole] | 11.8 nM | > 10000 nM
19 | CC1(c2nc(-c3cc(OCC(F)(F)F)c(N4CC(F)(F)C4)cn3)no2)CC1 [Example 50, 3-[5-(3,3-difluoroazetidin-1-yl)-4-(2,2,2-trifluoroethoxy)pyridin-2-yl]-5-(1-methylcyclopropyl)-1,2,4-oxadiazole] | 45.8 nM | > 10000 nM
20 | CCOCCOc1cc(-c2noc(C(C)(C)C)n2)ncc1C1CC1 [Example 83, 5-tert-butyl-3-[5-cyclopropyl-4-(2-ethoxyethoxy)pyridin-2-yl]-1,2,4-oxadiazole] | 30.1 nM | > 10000 nM
21 | C[C@H](Oc1cc(-c2noc(C(C)(C)C)n2)ncc1C1CC1)C(F)(F)F [Example 48, 5-tert-butyl-3-[5-cyclopropyl-4-[(2S)-1,1,1-trifluoropropan-2-yl]oxypyridin-2-yl]-1,2,4-oxadiazole] | 19 nM | > 10000 nM
22 | CC(C)(C)c1nc(-c2cc(Oc3ccc(F)cc3)c(C3CC3)cn2)no1 [Example 61, 5-tert-butyl-3-[5-cyclopropyl-4-(4-fluorophenoxy)pyridin-2-yl]-1,2,4-oxadiazole] | 6.2 nM | > 10000 nM
23 | CC(C)(C)c1nc(-c2cc(OC3CCCOC3)c(C3CC3)cn2)no1 (stereo not drawn) [Example 88, 5-tert-butyl-3-[5-cyclopropyl-4-(oxan-3-yloxy)pyridin-2-yl]-1,2,4-oxadiazole] | 52.9 nM | > 10000 nM
24 | FC(F)(F)COc1cc(-c2nc(C(F)(F)F)no2)ncc1C1CC1 [Example 8, 5-[5-cyclopropyl-4-(2,2,2-trifluoroethoxy)pyridin-2-yl]-3-(trifluoromethyl)-1,2,4-oxadiazole] | 21.3 nM | > 10000 nM
25 | CC(C)(C)c1noc(-c2cc(OCC(F)(F)F)c(C3CC3)cn2)n1 [Example 40, 3-tert-butyl-5-[5-cyclopropyl-4-(2,2,2-trifluoroethoxy)pyridin-2-yl]-1,2,4-oxadiazole] | 2.2 nM | > 10000 nM
26 | COCc1nc(-c2cc(OCC3CC3)c(C3CC3)cn2)no1 [Example 12, 3-[5-cyclopropyl-4-(cyclopropylmethoxy)pyridin-2-yl]-5-(methoxymethyl)-1,2,4-oxadiazole] | 46.6 nM | > 10000 nM
27 | c1ccc(-c2noc(-c3cc(OCC4CC4)c(C4CC4)cn3)n2)cc1 [Example 2, 5-[5-cyclopropyl-4-(cyclopropylmethoxy)pyridin-2-yl]-3-phenyl-1,2,4-oxadiazole] | 23.1 nM | > 10000 nM
